From patent publication US4202979A, “6-Ethyl(or allyl)-8-methoxymethyl or methylmercaptomethylergolines and related compounds” (priority 1979, dated 1980)
Where a name gives a salt, the structure may show the parent alone. Read-outs that look alike come from different tables or passages of the source.

Legend:
[1] = system: 6-hydroxydopamine-lesioned rats (dopamine agonist activity); assay: rat turning test (turning behavior contralateral to lesion in 6-hydroxydopamine-lesioned rats); type: in vivo; details: for Average Number of Turns/rat: first 15 minutes after end of latency period
Protocol: In this test, nigro-neostriatal-lesioned rats are employed, which are prepared by the procedure of Ungerstedt and Arbuthnott, Brain Res, 24, 485 (1970). A compound having dopamine agonist activity causes the rats to turn in circles contralateral to the side of the lesion. After a latency period, which varies from compound to compound, the number of turns is counted over a 15-minute period.
The compounds were dissolved in water and the aqueous solution injected into the rat by the intraperitoneal route.

prolactin [2] = assay: inhibition of serum prolactin in reserpine-pretreated male rats; type: in vivo, rat (Sprague-Dawley); details: for inhibition at 0.05 mg/kg: Rattus norvegicus, ip, read-out: Percent Inhibition of Serum Prolactin
Protocol: Adult male rats of the Sprague-Dawley strain weighing about 200 g. were housed in an air-conditioned room with controlled lighting (lights on 6 a.m.-8 p.m.) and fed lab chow and water ad libitum. Each rat received an intraperitoneal injection of 2.0 mg. of reserpine in aqueous suspension 18 hours before administration of the ergoline derivative. The purpose of the reserpine was to keep prolactin levels uniformly elevated. The compounds under test were dissolved in 10 percent ethanol at a concentration of 10 mcg/ml. and were injected intraperitoneally at a standard dose of 50 mcg/kg. Each compound was administered to a group of 10 rats, and a control group of 10 intact males received an equivalent amount of 10 percent ethanol. One hour after treatment all rats were killed by decapitation, and 150 μl aliquots of serum were assayed for prolactin. The results were evaluated statistically using Student's "t" test to calculate the level of significance, "p", of the changes in prolactin level.
The difference between the prolactin level of the treated rats and prolactin level of the control rats, divided by the prolactin level of the control rats gives the percent inhibition of prolactin secretion attributable to the compounds of this invention. In the table, column 1 gives the name of the compound; column 2, the prolactin level for each group of rats; column 3, the percent prolactin inhibition; and column 4, the level of significance. The data were collected from three separate experiments, each with its own control, and Table 2 sets forth the results obtained by experiment.

dopamine receptors = assay: inhibition of high affinity binding of tritiated dopamine to dopamine receptors in membranes from striatal synaptosomes of bovine brain; details: for Ki: Table 3, tritiated dopamine, striatal synaptosomes of bovine brain
prolactin [3] = assay: inhibition of serum prolactin in reserpine-pretreated male rats; type: in vivo, rat (Sprague-Dawley); details: from dose response curves
Parkinsonism = details: literature; cited from earlier work
serotonin = serotonin agonist activity
prolactin [4] = details: literature; cited from earlier work
[5] = background; cited from earlier work
dopamine receptor = details: literature; cited from earlier work
[6] = Experiment 1, 50 mcg/kg i.p., 1 hour, control 30.4 ± 3.4, P <0.001 or <0.01
[7] = Experiment 3, 50 mcg/kg i.p., 1 hour, control 42.3 ± 7.3, P <0.001

Row | SMILES | Duration of Effect ([1]; IP dose 1 mg/kg, Table I) [h] | Latency of Effect ([1]; IP dose 1 mg/kg, Table I) [min] | Average Number of Turns/rat ([1]; IP dose 1 mg/kg, Table I) [Turns/rat] | Ki (dopamine receptors) [nM] | % of Rats Exhibiting Turning Behavior ([1]; IP dose 1 mg/kg, Table I) [%] | inhibition at 0.05 mg/kg (prolactin [2]; 1 h) [%] | also measured
1 | CCCN1C[C@H](CSC)C[C@@H]2c3cccc4[nH]cc(c34)C[C@H]21 [D-6-n-propyl-8β-methylmercaptomethylergoline methanesulfonate] | ≥ 24 | 5 to 7 | 105 | 3 ± 1 |  |  | average turns per lesioned rat ([1]; 15-minute period after latency): 105 turns per lesioned rat; potency in the turning behavior test relative to the corresponding D-6-methyl derivative ([1]; from dose response curves, 6-hydroxydopamine-lesioned rats): about 30 times; Serum Prolactin Level (prolactin [2]; [6]): 1.6 ± 0.4 ng/mL; inhibition at 0.05 mg/kg (prolactin [2]; Experiment 1, 50 mcg/kg i.p., 1 hour, P <0.001 (n-propyl), <0.01 (methyl)): 95%; potency as a prolactin inhibitor relative to the corresponding D-6-methyl compound (prolactin [3]): about 100 times
2 | COC[C@@H]1C[C@@H]2c3cccc4[nH]cc(c34)C[C@H]2N(C)C1 [D-6-methyl-8β-methoxymethylergoline mesylate, reference compound] |  |  |  | 75 |  |  | 
3 | CN1C[C@H](CC#N)C[C@@H]2c3cccc4[nH]c(Cl)c(c34)C[C@H]21 [lergotrile] |  |  |  |  |  |  | treatment of Parkinsonism (in words) (Parkinsonism): useful in the treatment of Parkinsonism
4 | CSC[C@@H]1C=C2c3cccc4[nH]cc(c34)C[C@H]2N(C)C1 [D-6-methyl-8β-methylmercaptomethyl-9-ergolene, reference compound] |  |  |  | 6 |  |  | 
5 | CCCN1C[C@H](CSC)C[C@@H]2c3cccc4[nH]cc(c34)C[C@H]21 [D-6-n-propyl-8β-methylmercaptomethylergoline] |  |  |  |  |  |  | inhibition of high affinity binding of tritiated dopamine (in words) (dopamine receptors; bovine striatal synaptosome membranes): extremely potent inhibitors; serotonin activity (in words) (serotonin): serotonin agonists rather than serotonin antagonists
6 | CC(C)[C@H]1C(=O)N2CCC[C@H]2[C@]2(O)O[C@](NC(=O)[C@@H]3C[C@@H]4c5cccc6[nH]cc(c56)C[C@H]4N(C)C3)(C(C)C)C(=O)N12 [dihydroergocornine] |  |  |  |  |  |  | prolactin inhibitor activity (in words) (prolactin [4]): activity as prolactin inhibitors
7 | CCCN1CC(CSC)=C[C@@H]2c3cccc4[nH]cc(c34)C[C@H]21 [D-6-n-propyl-8-methylmercaptomethyl-8-ergolene] | 1 | 4 | 118 | 2 | 100 | 91 | Serum Prolactin Level (prolactin [2]; [7]): 3.9 ± 0.2 ng/mL
8 | N[C@@H](Cc1ccc(O)c(O)c1)C(=O)O [1-dopa, 1-dihydroxyphenylalanine] |  |  |  |  |  |  | metabolism (in words) [5]: rapidly metabolized
9 | CC(C)C[C@H]1C(=O)N2CCC[C@H]2[C@]2(O)O[C@](NC(=O)[C@@H]3C=C4c5cccc6[nH]c(Br)c(c56)C[C@H]4N(C)C3)(C(C)C)C(=O)N12 [2-bromo-α-ergokryptine] |  |  |  |  |  |  | prolactin inhibitor activity (in words) (prolactin [4]): activity as prolactin inhibitors; dopamine receptor stimulation (in words) (dopamine receptor): stimulate dopamine receptors; treatment of Parkinsonism (in words) (Parkinsonism): useful in the treatment of Parkinsonism
10 | CCCN1C[C@H](C[S+](C)[O-])C[C@@H]2c3cccc4[nH]cc(c34)C[C@H]21 (stereo partly drawn) [D-6-n-propyl-8β-methylsulfinylmethylergoline] | 1 | 7 | 65 |  | 100 | 92 | Serum Prolactin Level (prolactin [2]; [7]): 3.3 ng/mL
11 | CCCN1C[C@H](COC)C[C@@H]2c3cccc4[nH]cc(c34)C[C@H]21 [D-6-n-propyl-8β-methoxymethylergoline methanesulfonate] | ≥ 2 | 6 | 111 | 10 | 100 | 96 | Serum Prolactin Level (prolactin [2]; Experiment 2, 50 mcg/kg i.p., 1 hour, control 55.2 ± 4.1, P <0.001): 2.4 ± 0.2 ng/mL
12 | CCCN1C[C@H](CSC)C[C@@H]2c3cccc4[nH]c(Br)c(c34)C[C@H]21 [D-2-bromo-6-n-propyl-8β-methylmercaptomethylergoline] | 1 | 5 | 71 | 3 | 100 | 89 | Serum Prolactin Level (prolactin [2]; [7]): 4.6 ± 0.4 ng/mL
13 | CCCN1C[C@H](CSC)C=C2c3cccc4[nH]cc(c34)C[C@H]21 [D-6-n-propyl-8β-methylmercaptomethyl-9-ergolene] | ≥ 2 | 4 | 200 | 2 | 100 | 81 | Serum Prolactin Level (prolactin [2]; [7]): 8.1 ± 1.2
14 | CN1CC(CC#N)C[C@@H]2c3cccc4[nH]cc(c34)C[C@H]21 (stereo partly drawn) [D-6-methyl-8-cyanomethylergoline] |  |  |  |  |  |  | prolactin inhibitor activity (in words) (prolactin [4]): activity as prolactin inhibitors
15 | CSC[C@@H]1C[C@@H]2c3cccc4[nH]c(Cl)c(c34)C[C@H]2N(C)C1 [D-2-chloro-6-methyl-8β-methylmercaptomethylergoline mesylate, reference compound] |  |  |  | 6 |  |  | 
16 | CSC[C@@H]1C[C@@H]2c3cccc4[nH]cc(c34)C[C@H]2N(C)C1 [D-6-methyl-8β-methylmercaptomethylergoline mesylate, reference compound] |  | 30 to 45 | 51 | 13 | 50 | 58 | Duration of Effect in Hours ([1]; IP dose 1 mg/kg, Table I): ~ 2 Hours; Serum Prolactin Level (prolactin [2]; [6]): 12.8
17 | C=CCN1C[C@H](CSC)C[C@@H]2c3cccc4[nH]cc(c34)C[C@H]21 [D-6-allyl-8β-methylmercaptomethylergoline] |  |  |  | 5 |  |  | 
18 | CCN1C[C@H](CSC)C[C@@H]2c3cccc4[nH]cc(c34)C[C@H]21 [D-6-ethyl-8β-methylmercaptomethylergoline] | ≥ 2 | 9 | 112 | 3.5 | 100 | 91 | Serum Prolactin Level (prolactin [2]; [7]): 3.9 ± 0.4 ng/mL
19 | CC(C)[C@H]1C(=O)N2CCC[C@H]2[C@]2(O)O[C@](NC(=O)[C@@H]3C=C4c5cccc6[nH]cc(c56)C[C@H]4N(C)C3)(C(C)C)C(=O)N12 [Ergocornine] |  |  |  |  |  |  | prolactin inhibitor activity (in words) (prolactin [4]): activity as prolactin inhibitors; dopamine receptor stimulation (in words) (dopamine receptor): direct dopamine receptor stimulants of long duration
